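Protocol summary: plate cells (96-well), add compound at 5 concentrations, incubate 48 h, interpolate endpoints linearly. The concentration for full growth arrest is given as TGI.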
Key:
Test in all cases: NCI tumour cell line growth inhibition, 48 h
[1] = test system: 786-0 renal
[2] = test system: SNB-75 CNS
[3] = test system: K-562 leukemia
[4] = test system: HCT-116 colon
[5] = test system: MALME-3M melanoma
[6] = test system: KM12 colon
[7] = test system: SR leukemia
[8] = test system: SK-MEL-28 melanoma
[9] = test system: NCI-H226 lung
[10] = test system: M14 melanoma
[11] = test system: NCI/ADR-RES ovarian
[12] = test system: SF-295 CNS
[13] = test system: HCC-2998 colon
[14] = test system: HT29 colon
[15] = test system: HOP-92 NSCLC
[16] = test system: SF-539 CNS

| Structure (SMILES) | TGI [1] [µM] | TGI [2] [µM] | TGI [3] [µM] | TGI [4] [µM] | TGI [5] [µM] | TGI [6] [µM] | TGI [7] [µM] | TGI [8] [µM] | TGI [9] [µM] | TGI [10] [µM] | TGI [11] [µM] | TGI [12] [µM] | TGI [13] [µM] | TGI [14] [µM] | TGI [15] [µM] | TGI [16] [µM] |
| --- | --- | --- | --- | --- | --- | --- | --- | --- | --- | --- | --- | --- | --- | --- | --- | --- |
| C=CCN(c1cc(OC)c(NC(C)=O)cc1[N+](=O)[O-])S(C)(=O)=O | > 100 | > 100 | > 100 | > 100 | 68.5 | > 100 | > 100 | > 100 | > 100 | > 100 | > 100 | > 100 | > 100 |  |  |  |
| Cc1[nH]c(=O)nc2nc3cc(Cl)cc(Cl)c3c(NC(C)(CO)CO)c12 | 91.6 | 38.6 | > 100 | > 100 | > 100 | > 100 |  | > 100 | > 100 | > 100 | > 100 | > 100 | > 100 | > 100 | 57.7 | > 100 |
| C[C@H](C1CC(C)(O)C(C)(O)C(O)O1)[C@H]1CC[C@H]2[C@@H]3[C@@H]4O[C@@H]4[C@@]4(O)CC=CC(=O)[C@]4(C)[C@H]3CC[C@]12C (stereo partly specified) | > 50 | > 50 | > 50 | > 50 | 31.5 | > 50 |  | > 50 | > 50 | > 50 | > 50 | > 50 | > 50 | > 50 | > 50 |  |
| Cc1ccc(C)n1-c1ccccc1C1C=Cn2c(=O)nnc3c(OC(C)C)c(OC(C)C)c(O)c1c32 (stereo unspecified) | 65.7 | > 100 | > 100 | 70.1 | 76.5 | > 100 |  | 38.1 | 53.6 | > 100 | > 100 | > 100 | > 100 | 43.6 | > 100 | > 100 |
| COc1cccc2c1c1ccc3c(c1n2C)C(=O)C=CC3=O | 31.4 |  | > 100 | 27.2 | 27.1 | > 100 | 6.65 | 33.4 | > 100 | 27.7 |  | > 100 | > 100 | 12.6 | 25.9 | 30.9 |
| CC(/C=C/C(=O)NO)=C\C(C)C(=O)c1ccc(N(C)C)cc1 (stereo unspecified) | 6.42 | 0.234 |  | 11.5 | 0.0239 | 0.932 |  | 14.8 | 12.9 | 0.971 |  | 0.454 | < 0.0113 | > 100 | 0.388 | 2.04 |
| Cc1c2ccccc2c(C2C3C(=O)N(c4ccc(Br)cc4)C(=O)C3ON2C(C(N)=O)c2ccccc2)c2ccccc12 (stereo unspecified) | 33.1 | 17.3 | > 100 | > 100 | 34.1 | 22.1 |  | 74.6 | 30 | > 100 | 41.4 | 58.5 | 26.6 | 7.35 | 39.4 | 17.7 |
| COc1cc(/C=C2\C(=O)N(C(=O)Cc3ccccc3)N=C2C)cc(OC)c1OC | > 100 | > 100 | > 100 | > 100 | > 100 | > 100 | > 100 | > 100 | > 100 | > 100 |  | > 100 | > 100 | > 100 |  | > 100 |
| C=C(C)C12CC3CC(/C(=N/O)C(C1)/C3=N\O)[C@@]2(C)O (stereo partly specified) | > 100 | > 100 | > 100 | > 100 | > 100 |  | > 100 | > 100 | > 100 | > 100 |  | > 100 | > 100 | > 100 |  | > 100 |
| CC1=C(C#N)C(=C(C#N)C#N)OC1(C)Cc1ccccc1 (stereo unspecified) | > 100 | > 100 | > 100 | > 100 |  | > 100 |  | > 100 | 59.3 | > 100 | > 100 | > 100 | 89.6 | 78.6 | 38.6 | > 100 |
| O=C(C=P(c1ccccc1)(c1ccccc1)c1ccccc1)c1ccc(-c2cccs2)cc1 | 17.6 | 8.86 | 15.9 | 13.9 | 13.4 | 15 |  | 15.7 | 8.4 | 7.75 | 23.1 | 17.4 | 6.46 | 13.7 | 11.3 | 12.4 |
| O=C1C2C(C(=O)N1c1ccccc1)C1(c3ccccc3)CCC2(C(=O)c2ccccc2)O1 (stereo unspecified) | > 10 |  |  | > 10 | > 10 | > 10 |  | > 10 |  | > 10 | > 10 | > 10 | > 10 | > 10 |  | > 10 |

From PubChem BioAssay (NCI)
